Experimental data: patent US6855329B1, “Surface coating spatially controlled patterns” (Massachusetts Institute of Technology, priority 1998, dated 2005)

Legend:
[1] = system: PC12 cells; conditions: NGF-primed cells, 48hr
Method: (§1) A patterned polymer surface is prepared as described in Example 1;
(§2) Bovine aortic endothelial cells (BAECs) were maintained in low glucose Dulbecco's modifed Eagle's medium (DMEM) supplemented with 10% fetal bovine serum, 0.5% penicillin, 0.5% streptomycin and 1% L-glutamine in a humidified incubator at 37° C. and 5% CO2. Cells were passaged by trypsinisation before reaching confluence, usually every fifth day. Fresh media were added every other day. PC12 cells (ATCC CRL 1721) were grown in suspension culture in F-12K media supplemented with 15% horse serum, 2.5% fetal bovein serum, 0.5% penicillin, 0.5% streptomycin and 1% L-glutamine in a humidified incubator at 37° C. and 5% CO2. Cells were passaged 1:5 every third day. All cell culture reagents were obtained from Sigma unless otherwise stated.
(§3) BAECs between passages 7 and 9 were removed from tissue culture flasks by trypsinisation, pelleted by centrifugation, resuspended, washed three times and diluted to the appropriate concentration in serum-free MDEM. PC12 cells were primed with culture medium containing 50 ng/ml 7S nerve growth factor (NGF) 48 h prior to the experiment. The cells were pelleted by centrifugation, washed three times with serum-free F-12K medium, passed through a 22-guage needle to obtain a single cell suspension, and diluted to the appropriate concentration with serum-free. F-12K medium supplemented with 50ng/ml 7S NGF. For both cell types, approximately 10,000 cells/cm^2 were added to each sample and the plates returned to the incubator for the duration of the experiment (48hr). At the end point of the experiment, the samples were washed gently with PBS to remove unattached cells and visualised with a Nikon Diaphot TMD inverted microscope equipped with a Hitachi HV-C20 high resolution CCD video camera using phase contrast objectives. Images were digitised using NIH Image (v1.61) image analysis software. In addition, some BAEC samples were fixed in 10% neutral buffered formalin for 10 min, washed with water, and stained with hematoxylin for visualisation.

[2] = system: Bovine aortic endothelial cells (BAECs); conditions: 48hr
Method: as §1, §2, §3

[3] = cited from earlier work
[4] = system: smooth muscle cells, fibroblasts or platelets; conditions: binds to the integrin on human endothelial cells; cited from earlier work

Substance: biotin-G5CSRARKQAASIKVAVSADR (SEQ ID NO:19)
- neurite outgrowth of PC12 cells on the micropattern ([1]; neurites restricted from crossing the line boundary): Directionally controlled neurite outgrowth was stimulated
- adherence of PC12 cells to functionalised lines ([1]; serum-free F-12K with 50ng/ml 7S NGF, only a small degree of cell adhesion between the lines): selective adherence

Substance: biotin-G11 GRGDS (SEQ ID NO:18)
- cell adhesion to the 30 or 12 μm-wide lines ([2]; 30 or 12 μm-wide lines): little cell adhesion
- cell coverage of the 70 and 50 μm width lines ([2]; 70 and 50 μm width lines): Complete cell coverage
- adhesion and spreading of BAECs on functionalised lines ([2]; serum-free medium, approximately 10,000 cells/cm^2, no adhesion to unfunctionalised areas between the lines): adhered and spread

Substance: IKVAV (SEQ ID NO:2)
- water solubility [3]: not significantly water soluble

Substance: CSRARKQAASIKVAVSADR
- water solubility [3]: water soluble

Substance: REDV (SEQ ID NO:4)
- adhesion or spreading of smooth muscle cells, fibroblasts or platelets [4]: does not support adhesion or spreading
